Results reported in paper PMC3630091, “A Mechanistic Paradigm for Broad-Spectrum Antivirals that Target Virus-Cell Fusion” (PLoS Pathogens, 2013).
Like-named read-outs stand apart in the source and are kept apart here.

Key:
[1] = reference sensitizer value; cited from earlier work
HIV = assay: microbe, parasite or virus in culture; type: cell-based; conditions: Human immunodeficiency virus 1, 10 min, read-out: IC50 ± SD (nM) (N=x) HIV
NDV = assay: microbe, parasite or virus in culture; type: cell-based, Newcastle disease virus; conditions: read-out: IC50 ± SD (nM) (N=x) NDV
HSV = assay: microbe, parasite or virus in culture; type: cell-based, Herpes simplex virus-1; conditions: Human alphaherpesvirus 1, 10 min, read-out: IC50 ± SD (nM) (N=x) HSV
[2] = Absorbance spectra / UV-visible spectra integration; type: physicochemical
[3] = Singlet oxygen quantum yield measurements; type: physicochemical; conditions: error is one standard deviation
[4] = Singlet oxygen quenching measurements; type: physicochemical; conditions: 355 nm with C60 as external sensitizer; error is one standard deviation
[5] = Clinical observations after single dose in PK study; type: in vivo, female Balb/c mice; conditions: single dose 2.5 mg/kg ip, about 15 min post administration
Experimental: Dose administration. […] These mice were replaced and the dose level was reduced to 5 mg/kg. […] Hypoactivity was the only clinical observation noted in some of the mice treated with the 3 test articles at 10 and 100 mg/kg po. […] These animals were replaced and administered with the lower ip dose level of 1.25 mg/kg and underwent blood collections. Mice received single ip doses of 1.25 mg/kg (JL109 and JL118) or 5 mg/kg (JL122) and po doses of 10 mg/kg (JL109, JL118, JL122), 50 mg/kg (JL109, JL118), or 100 mg/kg (JL109, JL118, JL122).

in vitro = conditions: human
Pharmacokinetics in mice = conditions: female, Balb/c, mouse, in vivo; for AUC(0-t) / Cmax: po

O=C1OC2(c3cc(I)c(O)c(I)c3Oc3c2cc(I)c(O)c3I)c2c(Cl)c(Cl)c(Cl)c(Cl)c21 [RB, Rose Bengal]
1O2 QY of reference compound at 532 nm [1]: 0.79

CCN1C(=S)O/C(=C\c2ccc(-c3ccc(OC)cc3OC)o2)C1=S [JL109, (Z)-5-((5-(2,4-dimethoxyphenyl)furan-2-yl)methylene)-3-ethyloxazolidine-2,4-dithione]
IC50 (HIV): 4.5 ± 4.8 nM | IC50 (NDV; avian paramyxovirus 1, 10 min): 3.8 ± 3.9 nM | IC50 (HSV): 0.7 nM | Abs Max (λmax) ([2]; 100 µM in DMSO): 550 nm | AUC (400-750 nm) ([2]; integrated absorption divided by concentration, normalized relative to LJ001 (LJ001 = 100)): 178 | 1O2 QY 355 nm ([3]; in CD2Cl2, excitation 355 nm): 0.37 ± 0.02 | 1O2 QY 532 nm ([3]; in CD2Cl2, excitation 532 nm): 0.38 ± 0.02 | kT × 10-7 [4]: 2.000 ± 0.100 M-1s-1 | clinical observations [5]: deaths occurred in the initial 3 animals | CC50 (in vitro): 8510 nM | MRT last (Pharmacokinetics in mice): 4.5 to 10 h | Tmax (Pharmacokinetics in mice): 0.25 to 1 h | AUC(0-t) (Pharmacokinetics in mice; 10 mg/kg): 354 ng·h/mL | Cmax (Pharmacokinetics in mice; 10 mg/kg, po 10 mg/kg): 88.2 ng/mL | AUC(0-t) (Pharmacokinetics in mice; 50 mg/kg): 595 ng·h/mL | Cmax (Pharmacokinetics in mice; 50 mg/kg, po 50 mg/kg): 127 ng/mL | AUC(0-t) (Pharmacokinetics in mice; 100 mg/kg): 538 ng·h/mL | Cmax (Pharmacokinetics in mice; 100 mg/kg, po 100 mg/kg): 78.2 ng/mL

C1=Cc2nc1c(-c1ccccc1)c1ccc([nH]1)c(-c1ccccc1)c1nc(c(-c3ccccc3)c3ccc([nH]3)c2-c2ccccc2)C=C1 [TPP]
1O2 QY of reference compound at 532 nm [1]: 0.62

CCN1C(=O)/C(=C/c2ccc(-c3ccccc3)o2)OC1=S [JL101]
IC50 (NDV): 8800 nM
